Assay results as given in ChEMBL document CHEMBL1201862, “PubChem BioAssay data set” (2004).
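How tested: cells in 96-well plates exposed to compound for 48 hours at five concentrations. GI50: concentration for 50% inhibition of growth.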 The source made the active and inactive calls. Rule as the data show it: active = GI50 up to about 1.1 µM and inactive = higher.

Columns and labels:
Test in all cases: NCI anticancer screen, dose series, 48 h
ACHN = test system: ACHN
BT-549 = test system: BT-549
HCC 2998 = test system: HCC 2998
HCT-116 = test system: HCT-116
HCT-15 = test system: HCT-15
MDA-N = test system: MDA-N
Malme-3M = test system: Malme-3M
NCI-H522 = test system: NCI-H522
NCI/ADR-RES = test system: NCI/ADR-RES
RPMI-8226 = test system: RPMI-8226
SF-268 = test system: SF-268
SK-MEL-2 = test system: SK-MEL-2
SK-OV-3 = test system: SK-OV-3
SNB-19 = test system: SNB-19
SR = test system: SR
SW-620 = test system: SW-620
T47D = test system: T47D
TK-10 = test system: TK-10
UACC-62 = test system: UACC-62
UO-31 = test system: UO-31

Row | SMILES | GI50 (ACHN) | GI50 (BT-549) | GI50 (HCC 2998) | GI50 (HCT-116) | GI50 (HCT-15) | GI50 (MDA-N) | GI50 (Malme-3M) | GI50 (NCI-H522) | GI50 (NCI/ADR-RES) | GI50 (RPMI-8226) | GI50 (SF-268) | GI50 (SK-MEL-2) | GI50 (SK-OV-3) | GI50 (SNB-19) | GI50 (SR) | GI50 (SW-620) | GI50 (T47D) | GI50 (TK-10) | GI50 (UACC-62) | GI50 (UO-31)
1 | Oc1ccccc1C(Sc1nc2ccccc2s1)Sc1nc2ccccc2s1 | > 100 µM (inactive) | 56.4 µM (inactive) | > 100 µM (inactive) | > 100 µM (inactive) | 51.3 µM | > 100 µM (inactive) | 28.4 µM (inactive) | 17.6 µM (inactive) | 57.8 µM (inactive) | 32.6 µM (inactive) | 71.6 µM (inactive) | > 100 µM (inactive) | > 100 µM (inactive) | 64.6 µM (inactive) | 43.7 µM (inactive) | > 100 µM (inactive) | 19.3 µM (inactive) | > 100 µM (inactive) | 69.2 µM (inactive) | 6.55 µM (inactive)
2 | COc1ccc(NC2CC(C)N(C(=O)c3ccccc3)O2)cc1 (stereo not drawn) | > 10 µM (inactive) | 8.79 µM (inactive) | > 10 µM (inactive) | > 10 µM (inactive) | > 10 µM | > 10 µM (inactive) | > 10 µM (inactive) | > 10 µM (inactive) | > 10 µM (inactive) | > 10 µM (inactive) | > 10 µM (inactive) | > 10 µM (inactive) | > 10 µM (inactive) | > 10 µM (inactive) | > 10 µM (inactive) | > 10 µM (inactive) | > 10 µM (inactive) | > 10 µM (inactive) |  | > 10 µM (inactive)
3 | C/C(=N\N=C(N)N)c1c(C(=O)OCCCCCCOC(=O)c2nc3sccn3c2/C(C)=N/N=C(N)N)nc2sccn12 | > 100 µM (inactive) | > 100 µM (inactive) | > 100 µM (inactive) | > 100 µM (inactive) | > 100 µM | > 100 µM (inactive) | 43.4 µM (inactive) | > 100 µM (inactive) | > 100 µM (inactive) | 85.3 µM (inactive) | 49.1 µM (inactive) | > 100 µM (inactive) |  | 63.8 µM (inactive) | 18.3 µM (inactive) | > 100 µM (inactive) | 16.2 µM (inactive) | 22.8 µM (inactive) | > 100 µM (inactive) | 69.5 µM (inactive)
4 | O=C1N(Cc2ccccc2)C2CSCC2N1Cc1ccccc1 (stereo not drawn) | 49.2 µM (inactive) | 17.1 µM (inactive) | 26.5 µM (inactive) | 36.4 µM (inactive) |  | 30.2 µM (inactive) | 13.5 µM (inactive) | 3.94 µM (inactive) | 24.5 µM (inactive) | 23.5 µM (inactive) | 31.1 µM (inactive) | 16.7 µM (inactive) | 27.4 µM (inactive) | 63.2 µM (inactive) | 37.2 µM (inactive) | 36.2 µM (inactive) | 27.2 µM (inactive) | 29.6 µM (inactive) | 27.4 µM (inactive) | 24 µM (inactive)
5 | Cc1ccc(/N=N/c2c(C)nn(C(=O)CC(=O)Nc3ccc(Cl)cc3)c2C)cc1C | 5.79 µM (inactive) | > 100 µM (inactive) | > 100 µM (inactive) | 49.2 µM (inactive) |  | > 100 µM (inactive) | 85.5 µM (inactive) | 32.2 µM (inactive) | > 100 µM (inactive) | > 100 µM (inactive) | 37.2 µM (inactive) | 77.8 µM (inactive) | 16.9 µM (inactive) | 15.5 µM (inactive) | 18.8 µM (inactive) | > 100 µM (inactive) | > 100 µM (inactive) | 49.2 µM (inactive) | 79.4 µM (inactive) | 37.5 µM (inactive)
6 | CC1OC(OC2C(OC3CCC4(C)C(CCC5(C)C4CC=C4C6CC(C)(C)CCC6(C(=O)O)CCC45C)C3(C)CO)OCC(O)C2O)C(O)C(O)C1O (stereo not drawn) | 19 µM (inactive) | 16.7 µM (inactive) | 13.4 µM (inactive) | 7.4 µM (inactive) | 20.9 µM | 21.1 µM (inactive) | 19.3 µM (inactive) | 13.3 µM (inactive) | 20.9 µM (inactive) |  | 17.1 µM (inactive) | 17.7 µM (inactive) | 18.1 µM (inactive) | 15.8 µM (inactive) | 3.33 µM (inactive) | 11.7 µM (inactive) | 22.1 µM (inactive) | 20 µM (inactive) | 8.05 µM (inactive) | 3.66 µM (inactive)
7 | OC1(c2ccc3ccccc3c2)c2ccc3ccccc3c2C2=NCCN21 (stereo not drawn) | > 100 µM (inactive) | > 100 µM (inactive) | 74.1 µM (inactive) | 34.6 µM (inactive) | > 100 µM | > 100 µM (inactive) | > 100 µM (inactive) |  | 37.1 µM (inactive) | > 100 µM (inactive) | 54.3 µM (inactive) | > 100 µM (inactive) | > 100 µM (inactive) | 66.8 µM (inactive) | 36.8 µM (inactive) | 94.8 µM (inactive) | > 100 µM (inactive) | 28.3 µM (inactive) | > 100 µM (inactive) | 40.9 µM (inactive)
8 | CCOC(=O)C(NC(=O)CC)(Nc1ccccc1F)C(F)(F)F (stereo not drawn) | 48.9 µM (inactive) | > 100 µM (inactive) | > 100 µM (inactive) | > 100 µM (inactive) | > 100 µM | > 100 µM (inactive) |  | > 100 µM (inactive) | 99.3 µM (inactive) | > 100 µM (inactive) | > 100 µM (inactive) | > 100 µM (inactive) | > 100 µM (inactive) | > 100 µM (inactive) | > 100 µM (inactive) | > 100 µM (inactive) | 38.4 µM (inactive) | > 100 µM (inactive) | 42.2 µM (inactive) | > 100 µM (inactive)
9 | Nn1c(Nc2ccc(S(=O)(=O)Nc3ncccn3)cc2)nnc(/C=C/c2c(O)ccc3ccccc23)c1=O | 25.8 µM (inactive) | 22.3 µM (inactive) | 23.3 µM (inactive) | 21.1 µM (inactive) | 27.3 µM | 31.4 µM (inactive) | 30.8 µM (inactive) | 34.3 µM (inactive) | 32.7 µM (inactive) | 34.1 µM (inactive) | 31.6 µM (inactive) | 18.5 µM (inactive) |  | 46.9 µM (inactive) | 23.4 µM (inactive) | 31.8 µM (inactive) | 23.8 µM (inactive) | 26.8 µM (inactive) | 20.5 µM (inactive) | 30.5 µM (inactive)
10 | COC(=O)C(CCCCN)NC(=O)C(CCCCN)NC(C)=O.Cc1ccc(C(=O)Nc2ccc(S(=O)(=O)O)c3cc(S(=O)(=O)O)cc(S(=O)(=O)O)c23)cc1NC(=O)c1cccc(NC(=O)Nc2cccc(C(=O)Nc3cc(C(=O)Nc4ccc(S(=O)(=O)O)c5cc(S(=O)(=O)O)cc(S(=O)(=O)O)c45)ccc3C)c2)c1 | > 50 µM (inactive) | > 50 µM (inactive) | > 50 µM (inactive) | > 50 µM (inactive) | > 50 µM | > 50 µM (inactive) | > 50 µM (inactive) | > 50 µM (inactive) | > 50 µM (inactive) | > 50 µM (inactive) | > 50 µM (inactive) | > 50 µM (inactive) | > 50 µM (inactive) | > 50 µM (inactive) | > 50 µM (inactive) | > 50 µM (inactive) | > 50 µM (inactive) |  | > 50 µM (inactive) | > 50 µM (inactive)
11 | Cc1ccc2c(sc(-c3ccc4c(c3)sc(-c3ccc(N(C)C)cc3)[n+]4C)[n+]2C)c1S(=O)(=O)O.Cc1ccc2c(sc(-c3ccc4c(c3)sc(-c3ccc5c(c3)sc(-c3ccc(N(C)C)cc3)[n+]5C)[n+]4C)[n+]2C)c1S(=O)(=O)O | 62.7 µM (inactive) | 30.8 µM (inactive) | > 100 µM (inactive) | > 100 µM (inactive) | 66.1 µM | > 100 µM (inactive) |  | 30.4 µM (inactive) | > 100 µM (inactive) | 80.2 µM (inactive) | > 100 µM (inactive) | > 100 µM (inactive) | > 100 µM (inactive) | > 100 µM (inactive) | 1 µM (active) | > 100 µM (inactive) | 85.9 µM (inactive) | > 100 µM (inactive) | > 100 µM (inactive) | > 100 µM (inactive)
12 | C(=N\c1cc2cc(Sc3ccccc3)ccc2[nH]1)/c1ccccc1 | > 12.5 µM (inactive) | > 12.5 µM (inactive) | 6.41 µM (inactive) | > 12.5 µM (inactive) | > 12.5 µM | 4.91 µM (inactive) | > 12.5 µM (inactive) | > 12.5 µM (inactive) | > 12.5 µM (inactive) | > 12.5 µM (inactive) | > 12.5 µM (inactive) |  |  | > 12.5 µM (inactive) | 1.32 µM (inactive) | > 12.5 µM (inactive) | > 12.5 µM (inactive) |  | 7.11 µM (inactive) | 
13 | C=CCOc1ccc(C(/N=N\c2ccc(Cl)cc2)=N/NC(=O)c2ccccc2)cc1OC | 89.1 µM (inactive) | 20.4 µM (inactive) | 39 µM (inactive) | 64.4 µM (inactive) | 80.7 µM | 35 µM (inactive) | 51.3 µM (inactive) | 41.3 µM (inactive) | 72.4 µM (inactive) |  | > 100 µM (inactive) | > 100 µM (inactive) |  | > 100 µM (inactive) | > 100 µM (inactive) | > 100 µM (inactive) | 22 µM (inactive) | > 100 µM (inactive) | 23.8 µM (inactive) | 54.8 µM (inactive)
14 | Cc1ccc2c3c1O[C@H]1c4nc5ccccc5cc4C[C@@]4(O)[C@@H](C2)N(CC2CC2)CC[C@]314 | 10.4 µM (inactive) | 11.2 µM (inactive) |  | 4.54 µM (inactive) | 0.873 µM | 11.8 µM (inactive) | 14.5 µM (inactive) | 13.7 µM (inactive) | 6.44 µM (inactive) | 4.63 µM (inactive) | 7.03 µM (inactive) | 18.5 µM (inactive) | 14.1 µM (inactive) | 12.8 µM (inactive) | 3.86 µM (inactive) | 4.29 µM (inactive) | 15.8 µM (inactive) | 29.6 µM (inactive) | 9.82 µM (inactive) | 10.4 µM (inactive)
